Laboratory results reported in patent US12116371B2, “Substituted pyridines as irreversible inhibitors of menin-MLL interaction” (BIOMEA FUSION, INC., priority 2018, dated 2024).
Where two headings read alike, the source gives them in different places.

Columns and labels:
Assay in all cases: Long-term proliferation (LTP) assay, CellTiterGlo (Example 103)
MV4-11 (MLL-AF4) cells = assay type: cell-based, human; settings: for IC50: Homo sapiens, MV4-11 (MLL-AF4), LTP assay
Method: (§1) The day of the experiment (TO) all the cell line suspensions were counted by Cell Viability Analyser, Vi-CELL and properly diluted with fresh medium to obtain the cell density reported in the Test System paragraph.
(§2) Cells were tested after 4 passages after thawing.
(§3) 200 μL/well and 150 μL/well of cell suspension were added into the 0.4 µL/well and 0.3 μL/well compound plates, respectively. • Cell plate containing 200 μL/well suspension was incubated at 37° C. in a humidified incubator with 5% CO2. • From each well of the 150 µL/well cell assay plate, 100 μL were harvested and transferred into a 96-well Optiplate (Perkin Elmer, Cat. n. 6005290) and cell viability was measured as described in 4.3 paragraphs (TO). • After four days in culture (T4) 150 μL/well of fresh medium were added into a new […] copy compound plate. • From each well of the 200 μL/well cell assay plate: • 100 μL were sampled for the cell viability measurement as described in 4.3 paragraphs (T4). • 50 μL were harvested and added to the 150 μL/well compound plate prepared as described in the first point to dilute 1:4 the cell suspension. • The cell assay plate diluted and containing 200 µL/well suspension were incubated at 37° C. in a humidified incubator with 5% CO2.
(§4) At T7-T11-T14 it was proceeded as described in T4, with the exception that no further cell dilution was carried out at T14.
(§5) Plates containing the samples to be tested were equilibrated at room temperature for approximately 30 min and then 30 μL/well of the Promega CellTiterGlo® reagent were added. Contents will be mixed for 5 min on an orbital shaker to induce cell lysis and then incubated at room temperature for an additional 10 min to stabilize the luminescent signal.
(§6) Luminescence was read by using VictorV (Perkin Elmer) multilabel plate reader using the standard protocol for luminescence in 96 well plate.
(§7) Data were expressed as % of inhibition compared to the 0.2% DMSO negative control, and was calculated as follows: % inhibition=100−[(RLU sample)×100/(RLU average controls*)] • *cells containing 0.2% DMSO
(§8) CRCs were analysed by GraphPad and IC50 values were calculated by non-linear regression using 4 parameter-logistic equation. IC50 (M) values were reported in the final data table.

MOLM-13 (MLL-AF9) cells = assay type: cell-based, human; settings: for IC50: Homo sapiens, MOLM-13 (MLL-AF9), LTP assay
Method: as §1, §2, §3, §4, §5, §6, §7, §8

RS4-11 (MLL-AF4) cells = assay type: cell-based; settings: for IC50: Homo sapiens, RS4-11 (MLL-AF4), LTP assay
Method: as §1, §2, §3, §4, §5, §6, §7, §8

HL-60 cells = assay type: cell-based; settings: for IC50: Homo sapiens
Method: as §1, §2, §3, §4, §5, §6, §7, §8

[1] = 96 h, Day 4, read-out: Day 4 IC50
[2] = 168 h, Day 7, read-out: Day 7 IC50
[3] = 264 h, Day 11, read-out: Day 11 IC50
[4] = 336 h, Day 14, read-out: Day 14 IC50

- IC50 (MV4-11 (MLL-AF4) cells; [1]): 460 nM
- IC50 (MV4-11 (MLL-AF4) cells; [2]): 290 nM
- IC50 (MV4-11 (MLL-AF4) cells; [3]): 220 nM
- IC50 (MV4-11 (MLL-AF4) cells; [4]): 200 nM
- IC50 (MOLM-13 (MLL-AF9) cells; [1]): 260 nM
- IC50 (MOLM-13 (MLL-AF9) cells; [2]): 280 nM
- IC50 (MOLM-13 (MLL-AF9) cells; [3]): 240 nM
- IC50 (MOLM-13 (MLL-AF9) cells; [4]): 230 nM
- IC50 (RS4-11 (MLL-AF4) cells; [1]): 500 nM
- IC50 (RS4-11 (MLL-AF4) cells; [2]): 470 nM
- IC50 (RS4-11 (MLL-AF4) cells; [3]): > 5000 nM
- IC50 (HL-60 cells; 96 h, Day 4, LTP assay, read-out: Day 4 IC50): 430 nM
- IC50 (HL-60 cells; 168 h, Day 7, LTP assay, read-out: Day 7 IC50): 260 nM
- IC50 (HL-60 cells; 264 h, Day 11, LTP assay, read-out: Day 11 IC50): 290 nM
- IC50 (HL-60 cells; 336 h, Day 14, LTP assay, read-out: Day 14 IC50): 270 nM
SMILES: C=CC(=O)NC1CCCN(Cc2ccnc(C(=O)Nc3ccc(-c4cc5c(N6CCOCC6)ncnc5[nH]4)cc3)c2)C1 (stereo not shown) [Compound 10]
- effect on cell viability at T4 (MV4-11 (MLL-AF4) cells; MV4-11, T4, increasing concentrations): fully inhibited
- effect on cell viability at T4 (MOLM-13 (MLL-AF9) cells; MOLM-13, T4, increasing concentrations): fully inhibited
- effect on cell viability at T4 (RS4-11 (MLL-AF4) cells; RS4;11, T4, increasing concentrations): fully inhibited
- effect on cell viability at T4 (HL-60 cells; T4, increasing concentrations): fully inhibited
